US8569280B2, “Methods for the treatment of multiple myeloma” (Immune Disease Institute, priority 2005, dated 2013)

What was measured:
MM cells = assay: transwell migration assay of MM cells toward SDF-1; assay type: cell-based
Method: AMD3100 was evaluated in amounts of 0-100 μM with all wells containing 20 nM SDF-1 in the lower chambers. […] 10 μM of anti-CXCR4MAB171 antibody inhibited migration to 53%, and 200 μM of MAB171 inhibited migration to 35% compared to a control (P=0.007).
The transwell migration assay was used to test the effect of the CXCR4 inhibitor AMD3100 on the migration of MM cells.
Similarly, the transwell migration assay was used to test the effect of the anti-CXCR 4 antibody MAB171 (10-800 μM) for 16 hours and its IgG2a isotype control on the in vitro migration of MM cells. […] Anti-CXCR4MAB171 inhibited 10 μM migration to 53%, and 200 μM migration to 35% compared with the control (P=0.007).

5T33mM cells [1] = settings: recipient mice treated with inhibitor
Method: AMD3100 and PBS is implanted, and the survival rate after 2 hours, 24 hours and 6 days is measured.
5T33mM cells, obtained as described above, are injected into recipient mice.

5T33mM cells [2] = assay: survival and serum IgG2b of mice injected with 5T33mM cells; assay type: in vivo, mouse; settings: subcutaneous osmotic pump, 25 mg/mL, 0.5 μl/hr, 21 days, started at the time of cell injection; versus PBS
Method: FIG. 5 is a graph showing the survival of C57BL/6 mice after injection with 10×10^6 5T33^eGFP cells. Osmotic pumps are installed at the time of injection, and either AMD3100 or PBS is implanted. The osmotic pumps are changed every 7 days, and the pump administration is discontinued after 21 days.
AMD3100 is delivered via a subcutaneous osmotic pump at a concentration of 25 mg/mL and a delivery rate of 0.5 μl/hr. The osmotic devices delivered the drug for 21 days.

For `c1cc(CN2CCCNCCNCCCNCC2)ccc1CN1CCCNCCNCCCNCC1` [AMD3100], the inhibition at 10 µM (MM cells; 10 μM AMD3100, 16 hours, 20 nM SDF-1 in lower chambers, read-out: inhibition of migration of MM cells compared with control) was 70%, the “dose dependence of inhibition of MM cell migration” value (MM cells; AMD3100 0-100 μM, MAB171 0-400 μg/mL or 10-800 μM, 16 hours) was “dose-dependent inhibition of migration” and the “inhibition of migration at doses higher than 10 μM” value (MM cells; AMD3100 above 10 μM up to 100 μM, 16 hours) was “did not induce further inhibition of migration”. For the same molecule, the “homing of 5T33mM cells to bone marrow” value (5T33mM cells [1]; 2 hours) was “does not affect”, the “retention of 5T33mM cells in bone marrow” value (5T33mM cells [1]; 24 hours) was “does not affect” and the “proliferation/survival of 5T33mM cells in bone marrow” value (5T33mM cells [1]; 6 days) was “significantly reduces”. The “survival of mice injected with 5T33 cells” value (5T33mM cells [2]) was “an increase in survival is observed”.
